Experimental data: US8192962B2, “Processes for detecting toxic substances” (Daikin Industries, Ltd., priority 2001, dated 2012)

System: Genes belonging to other category
Assay: DNA chip mRNA expression in yeast, genes belonging to other category (Table 9)
Format: cell-based, Saccharomyces cerevisiae S288C
Outline: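 Chemical exposure: 2 h, log-phase S. cerevisiae S288C, YPD, 25° C., dose set to inhibit growth without death. Profiling: mRNA labeled by reverse transcription with Cy3- or Cy5-dUTP, hybridized to whole-genome array. Output: fluorescence ratio against untreated culture.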

[Cl][Pb][Cl] [(4), PbCl2]
The level of expressed mRNA in the presence of chemical substance/The level of expressed mRNA in the absence of chemical substance (yeast gene YKL013C): 1.1
The level of expressed mRNA in the presence of chemical substance/The level of expressed mRNA in the absence of chemical substance (yeast gene YKL039W): 0.8
The level of expressed mRNA in the presence of chemical substance/The level of expressed mRNA in the absence of chemical substance (yeast gene YKL041W): 1.0
The level of expressed mRNA in the presence of chemical substance/The level of expressed mRNA in the absence of chemical substance (yeast gene YKL096W): 1.6
The level of expressed mRNA in the presence of chemical substance/The level of expressed mRNA in the absence of chemical substance (yeast gene YKL165C): 0.6
The level of expressed mRNA in the presence of chemical substance/The level of expressed mRNA in the absence of chemical substance (yeast gene YKL193C): 1.4
The level of expressed mRNA in the presence of chemical substance/The level of expressed mRNA in the absence of chemical substance (yeast gene YLR120C): 1.6
The level of expressed mRNA in the presence of chemical substance/The level of expressed mRNA in the absence of chemical substance (yeast gene YLR136C): 3.3
The level of expressed mRNA in the presence of chemical substance/The level of expressed mRNA in the absence of chemical substance (yeast gene YLR178C): 4.6
The level of expressed mRNA in the presence of chemical substance/The level of expressed mRNA in the absence of chemical substance (yeast gene YLR250W): 1.4
The level of expressed mRNA in the presence of chemical substance/The level of expressed mRNA in the absence of chemical substance (yeast gene YLR327C): 8.2
The level of expressed mRNA in the presence of chemical substance/The level of expressed mRNA in the absence of chemical substance (yeast gene YLR356W): 1.2
The level of expressed mRNA in the presence of chemical substance/The level of expressed mRNA in the absence of chemical substance (yeast gene YLR362W): 3.0
The level of expressed mRNA in the presence of chemical substance/The level of expressed mRNA in the absence of chemical substance (yeast gene YLR391W): 0.8
The level of expressed mRNA in the presence of chemical substance/The level of expressed mRNA in the absence of chemical substance (yeast gene YLR429W): 0.9
The level of expressed mRNA in the presence of chemical substance/The level of expressed mRNA in the absence of chemical substance (yeast gene YMR004W): 1.3
The level of expressed mRNA in the presence of chemical substance/The level of expressed mRNA in the absence of chemical substance (yeast gene YMR094W): 1.7
The level of expressed mRNA in the presence of chemical substance/The level of expressed mRNA in the absence of chemical substance (yeast gene YMR104C): 2.6
The level of expressed mRNA in the presence of chemical substance/The level of expressed mRNA in the absence of chemical substance (yeast gene YMR219W): 0.7
The level of expressed mRNA in the presence of chemical substance/The level of expressed mRNA in the absence of chemical substance (yeast gene YMR226C): 1.6
The level of expressed mRNA in the presence of chemical substance/The level of expressed mRNA in the absence of chemical substance (yeast gene YMR275C): 0.6
The level of expressed mRNA in the presence of chemical substance/The level of expressed mRNA in the absence of chemical substance (yeast gene YMR276W): 0.7
The level of expressed mRNA in the presence of chemical substance/The level of expressed mRNA in the absence of chemical substance (yeast gene YMR314W): 1.3
The level of expressed mRNA in the presence of chemical substance/The level of expressed mRNA in the absence of chemical substance (yeast gene YNL006W): 1.5
The level of expressed mRNA in the presence of chemical substance/The level of expressed mRNA in the absence of chemical substance (yeast gene YNL007C): 0.8
The level of expressed mRNA in the presence of chemical substance/The level of expressed mRNA in the absence of chemical substance (yeast gene YNL093W): 4.5
The level of expressed mRNA in the presence of chemical substance/The level of expressed mRNA in the absence of chemical substance (yeast gene YNL333W): 2.3
The level of expressed mRNA in the presence of chemical substance/The level of expressed mRNA in the absence of chemical substance (yeast gene YNR010W): 2.8
The level of expressed mRNA in the presence of chemical substance/The level of expressed mRNA in the absence of chemical substance (yeast gene YNR069C): 0.4
The level of expressed mRNA in the presence of chemical substance/The level of expressed mRNA in the absence of chemical substance (yeast gene YOL013C): 1.5
The level of expressed mRNA in the presence of chemical substance/The level of expressed mRNA in the absence of chemical substance (yeast gene YOL164W): 1.5
The level of expressed mRNA in the presence of chemical substance/The level of expressed mRNA in the absence of chemical substance (yeast gene YOR036W): 1.6
The level of expressed mRNA in the presence of chemical substance/The level of expressed mRNA in the absence of chemical substance (yeast gene YOR117W): 0.8
The level of expressed mRNA in the presence of chemical substance/The level of expressed mRNA in the absence of chemical substance (yeast gene YOR124C): 0.8
The level of expressed mRNA in the presence of chemical substance/The level of expressed mRNA in the absence of chemical substance (yeast gene YOR132W): 2.8
The level of expressed mRNA in the presence of chemical substance/The level of expressed mRNA in the absence of chemical substance (yeast gene YOR157C): 1.3
The level of expressed mRNA in the presence of chemical substance/The level of expressed mRNA in the absence of chemical substance (yeast gene YOR181W): 1.4
The level of expressed mRNA in the presence of chemical substance/The level of expressed mRNA in the absence of chemical substance (yeast gene YOR185C): 1.1
The level of expressed mRNA in the presence of chemical substance/The level of expressed mRNA in the absence of chemical substance (yeast gene YOR198C): 1.0
The level of expressed mRNA in the presence of chemical substance/The level of expressed mRNA in the absence of chemical substance (yeast gene YOR259C): 0.9
The level of expressed mRNA in the presence of chemical substance/The level of expressed mRNA in the absence of chemical substance (yeast gene YOR261C): 0.9
The level of expressed mRNA in the presence of chemical substance/The level of expressed mRNA in the absence of chemical substance (yeast gene YOR288C): 1.1
The level of expressed mRNA in the presence of chemical substance/The level of expressed mRNA in the absence of chemical substance (yeast gene YOR355W): 0.8
The level of expressed mRNA in the presence of chemical substance/The level of expressed mRNA in the absence of chemical substance (yeast gene YOR383C): 0.9
The level of expressed mRNA in the presence of chemical substance/The level of expressed mRNA in the absence of chemical substance (yeast gene YPL089C): 1.8
The level of expressed mRNA in the presence of chemical substance/The level of expressed mRNA in the absence of chemical substance (yeast gene YPL109C): 1.2
The level of expressed mRNA in the presence of chemical substance/The level of expressed mRNA in the absence of chemical substance (yeast gene YPL149W): 2.8
The level of expressed mRNA in the presence of chemical substance/The level of expressed mRNA in the absence of chemical substance (yeast gene YPL154C): 1.2
The level of expressed mRNA in the presence of chemical substance/The level of expressed mRNA in the absence of chemical substance (yeast gene YPR103W): 0.7
The level of expressed mRNA in the presence of chemical substance/The level of expressed mRNA in the absence of chemical substance (yeast gene YPR108W): 0.6
